Results taken from the supplement of paper PMC10307832.

Assays:
Test in all cases: relative viability (nuclei count vs DMSO), 5 days (fraction); higher = more cells survive
[1] = compound: CO[C@@H]1[C@H](N(C)C(=O)c2ccccc2)C[C@H]2O[C@]1(C)n1c3ccccc3c3c4c(c5c6ccccc6n2c5c31)C(=O)NC4 [Midostaurin] + CC(=O)c1c(C)c2cnc(Nc3ccc(N4CCNCC4)cn3)nc2n(C2CCCC2)c1=O [Palbociclib] (partner 0.5 µM)
How it was run: (§1)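 Nuclei were stained with Hoechst during a one-step fixation (final 0.05% Triton X-100, 1% formaldehyde, 1 ug/ml Hoechst) carried out 5 days after dosing, then counted on 4× images. The cells, lung cancer lines in 1536-well plates, had been dosed by pin tool the day after seeding with one drug alone or a fixed anchor-drug dose plus five library-drug doses (not always all listed) in √10 steps. Relative viability is the nuclei count in treated wells divided by that in vehicle wells, and each value is the median of duplicate plates.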

Midostaurin + Bortezomib = compound: CO[C@@H]1[C@H](N(C)C(=O)c2ccccc2)C[C@H]2O[C@]1(C)n1c3ccccc3c3c4c(c5c6ccccc6n2c5c31)C(=O)NC4 [Midostaurin] + CC(C)C[C@H](NC(=O)[C@H](Cc1ccccc1)NC(=O)c1cnccn1)B(O)O [Bortezomib] (partner 0.002 µM)
How it was run: as §1

[2] = compound: COc1cc(-c2nn([C@H]3CC[C@H](N4CCN(C(C)=O)CC4)CC3)c3ncnc(N)c23)ccc1NC(=O)c1cc2ccccc2n1C + Cc1nc(Nc2ncc(C(=O)Nc3c(C)cccc3Cl)s2)cc(N2CCN(CCO)CC2)n1 [Dasatinib] (partner 0.075 µM)
How it was run: as §1

[3] = compound: COc1cc(-c2nn([C@H]3CC[C@H](N4CCN(C(C)=O)CC4)CC3)c3ncnc(N)c23)ccc1NC(=O)c1cc2ccccc2n1C + O=C(CCCCCCC(=O)Nc1ccccc1)NO [Vorinostat] (partner 1 µM)
How it was run: as §1

Midostaurin + Linsitinib = compound: CO[C@@H]1[C@H](N(C)C(=O)c2ccccc2)C[C@H]2O[C@]1(C)n1c3ccccc3c3c4c(c5c6ccccc6n2c5c31)C(=O)NC4 [Midostaurin] + C[C@]1(O)C[C@@H](c2nc(-c3ccc4ccc(-c5ccccc5)nc4c3)c3c(N)nccn32)C1 [Linsitinib] (partner 1 µM)
How it was run: as §1

Cell Line	relative viability ([1]; first compound 0.01 µM)	relative viability ([1]; first compound 0.03162 µM)	relative viability ([1]; first compound 0.1 µM)	relative viability ([1]; first compound 0.3162 µM)	relative viability (Midostaurin + Bortezomib; first compound 0.01 µM)	relative viability (Midostaurin + Bortezomib; first compound 0.03162 µM)	relative viability (Midostaurin + Bortezomib; first compound 0.1 µM)	relative viability (Midostaurin + Bortezomib; first compound 0.3162 µM)	relative viability ([2]; first compound 0.0128 µM)	relative viability ([2]; first compound 0.04048 µM)	relative viability ([2]; first compound 0.128 µM)	relative viability ([2]; first compound 1.28 µM)	relative viability ([3]; first compound 0.0128 µM)	relative viability ([3]; first compound 0.04048 µM)	relative viability ([3]; first compound 0.128 µM)	relative viability ([3]; first compound 1.28 µM)	relative viability (Midostaurin + Linsitinib; first compound 0.01 µM)	relative viability (Midostaurin + Linsitinib; first compound 0.03162 µM)	relative viability (Midostaurin + Linsitinib; first compound 0.1 µM)	relative viability (Midostaurin + Linsitinib; first compound 0.3162 µM)
NCI-H1915	0.451	0.523	0.531	0.524	0.936	1	0.968	0.993	0.313	0.278	0.271	0.333	0.651	0.577	0.507	0.44	1.05	1.06	1.09	1.11
NCI-H1975	0.524	0.65	0.564	0.583	0.325	0.513	0.446	0.322	0.345	0.294	0.357	0.24	0.724	0.735	0.624	0.41	0.92	0.959	0.727	0.575
NCI-H1993	0.495	0.802	0.794	0.656	1.03	1.15	1.08	1.11	0.5	0.499	0.428	0.599	0.916	0.682	0.957	0.726	0.782	0.712	0.655	0.669
NCI-H2009	0.175	0.192	0.287	0.404	0.882	0.981	0.942	0.809	0.298	0.267	0.31	0.382	0.711	0.702	0.78	0.751	1.2	1.05	1.06	1.19
NCI-H2023	0.482	0.428	0.341	0.192	0.974	0.961	0.963	0.567	0.559	0.668	0.524	0.663	0.821	0.631	0.646	0.695	0.653	0.617	0.515	0.403
NCI-H2085	0.497	0.467	0.491	0.494	0.968	0.963	1.08	0.946	0.237	0.246	0.249	0.219	0.83	1.17	0.764	0.759	0.842	0.865	0.801	0.768
NCI-H2087	0.213	0.232	0.268	0.27	0.827	0.717	0.542	0.841	1.11		0.733	0.857	0.745		0.798	0.987	0.985	0.885	0.934	1.01
NCI-H2126	0.332	0.364	0.359	0.383	1.07	1.08	1.03	1.12	0.635	0.609	0.626	0.506	0.92	0.621	0.658	0.636	0.742	0.673	0.748	0.792
